How the values were obtained:
Format in all cases: cell-based
[1] = system: p-Akt 1/2/3 (Ser473) in MCF-7 cells; assay: AlphaLISA Ultra pAKT assay; settings: Homo sapiens, 1.5 h; MCF7 cells, 90 min
Protocol: Example 56: AlphaLISA Ultra pAKT Assay
Assay Protocol: • 1. MCF-7 cells in Corning 3701 plate and incubate for 20˜24 hour. 16,000˜20,000 cells will be seeded in 36 μL medium per well. • 2. Change the culture medium with fresh medium and incubate for another 90 minutes. • 3. Add 12 μL (4×) compounds into the cell plate by HAMILTON. Final DMSO concentration is 0.5%. […] Aspirate 38 μL by HAMILTON, 10 μL rest per well. • 5. Add 10 μL 2× lysis buffer using HAMILTON; total volume in wells is 20 μL. Allow cells to shake for 30 min. Cover plate by plastic foil and store plate at −80° C. up to analysis. • 6. Thaw cell lysate at RT and transfer 10 μL lysate to assay plate (Optiplate-384). • 7. Add 5 μL acceptor beads into assay plate and incubation for 2 hours • 8. Add 5 μL donor beads and incubation for 2 hours • 9. Count the plate by EnSpire Multimode Plate Reader

mTORC1 over mTORC2 = mTORC1 over mTORC2 selectivity by comparing pS6K1 and pAKT IC50; settings: by comparing pS6K1 and pAKT IC50, 90 min
Protocol: Assay Protocol: • 1. Seed MCF-7 cells in Corning 3701 plate and incubate for 20˜24 hour. 12,000˜16,000 cells will be seeded in 36 μL medium per well. • 2. Change the culture medium with fresh medium and incubate for another 2 hours. • 3. Add 12 μL (4×) compounds into the cell plate by HAMILTON. Final DMSO concentration is 0.5%. Incubate for 90 minutes. • 4. Aspirate 38 μL by HAMILTON, 10 μL rest per well. • 5. Add 10 μL 2× lysis buffer using HAMILTON; total volume in wells is 20 μL. Allow cells to shake for 30 min. Cover plate by plastic foil and store plate at −80° C. up to analysis. • 6. Thaw cell lysate at RT and transfer 10 μL lysate to assay plate (Optiplate-384). • 7. Add 5 μL acceptor beads into assay plate and incubation for 2 hours • 8. Add 5 μL donor beads and incubation for 2 hours • 9. Count the plate by EnSpire Multimode Plate Reader […]
Compounds that are not selective by comparing pS6K1 and pAKT IC50 by kinase assays are indicated by “NO” in the “mTORC1 selective @ 90 min” column of Table 4. […] Compounds that are not selective at the 24 hrs mark are indicated by “NO” in the “mTORC1 selective @ 24 hrs” column of Table 4. “N/A” stands for “not assayed” and “N/C” stands for “not calculated”.

[2] = system: p-p70 S6 Kinase (Thr389) in MCF-7 cells; assay: AlphaLISA Ultra pS6K1 assay; settings: Homo sapiens, 1.5 h; MCF7 cells, 90 min
Protocol: Example 55: AlphaLISA Ultra pS6K1 Assay
Assay Protocol: • 1. Seed MCF-7 cells in Corning 3701 plate and incubate for 20˜24 hour. 12,000˜16,000 cells will be seeded in 36 μL medium per well. • 2. Change the culture medium with fresh medium and incubate for another 2 hours. • 3. Add 12 μL (4×) compounds into the cell plate by HAMILTON. Final DMSO concentration is 0.5%. Incubate for 90 minutes. • 4. Aspirate 38 μL by HAMILTON, 10 μL rest per well. • 5. Add 10 μL 2× lysis buffer using HAMILTON; total volume in wells is 20 μL. Allow cells to shake for 30 min. Cover plate by plastic foil and store plate at −80° C. up to analysis. • 6. Thaw cell lysate at RT and transfer 10 μL lysate to assay plate (Optiplate-384). • 7. Add 5 μL acceptor beads into assay plate and incubation for 2 hours • 8. Add 5 μL donor beads and incubation for 2 hours • 9. Count the plate by EnSpire Multimode Plate Reader

Row | Compound | IC50 [1] [nM] | IC50 [2] [nM] | mTORC1 selective @ 90 min (mTORC1 over mTORC2)
1 | CO[C@@H]1/C(C)=C/[C@@H](C)C(=O)C[C@@H]([C@H](C)C[C@@H]2CC[C@@H](OP(C)(C)=O)[C@H](OC)C2)OC(=O)[C@@H]2CCCCN2C(=O)C(=O)[C@]2(O)O[C@@H](CC[C@H]2C)CC(OCCOC2COC2)/C(C)=C/C=C/C=C/[C@@H](C)C[C@@H](C)C(=O)[C@@H]1OC (stereo partly drawn) [I-75, (1R,2R,4S)-4-((2R)-2-((3S,6R,7E,9R,10R,12R,14S,15E,17E,19E,23S,26R,27R,34aS)-27-hydroxy-9,10-dimethoxy-6,8,12,14,20,26-hexamethyl-21-(2-(oxetan-3-yloxy)ethoxy)-1,5,11,28,29-pentaoxo-1,4,5,6,9,10,11,12,13,14,21,22,23,24,25,26,27,28,29,31,32,33,34,34a-tetracosahydro-3H-23,27-epoxypyrido[2,1-c][1]oxa[4]azacyclohentriacontin-3-yl)propyl)-2-methoxycyclohexyl dimethylphosphinate] | ≥ 1000 | ≥ 1000 | Yes
2 | CO[C@@H]1C[C@H](C[C@@H](C)[C@@H]2CC(=O)[C@H](C)/C=C(\C)[C@@H](O)[C@@H](OC)C(=O)[C@H](C)C[C@H](C)/C=C/C=C/C=C(\C)[C@@H](OCCOC3COC3)C[C@@H]3CC[C@@H](C)[C@@](O)(O3)C(=O)C(=O)N3CCCC[C@H]3C(=O)O2)CC[C@H]1OP(C)(C)=O [I-78, (1R,9S,12S,15R,16E,18R,19R,21R,23S,24E,26E,28E,30S,32S,35R)-12-[(1R)-2-[(1S,3R,4R)-4-dimethylphosphoryloxy-3-methoxy-cyclohexyl]-1-methyl-ethyl]-1,18-dihydroxy-19-methoxy-15,17,21,23,29,35-hexamethyl-30-[2-(oxetan-3-yloxy)ethoxy]-11,36-dioxa-4-azatricyclo[30.3.1.0^4,9]hexatriaconta-16,24,26,28-tetraene-2,3,10,14,20-pentone] | ≥ 1000 | < 1 | Yes
3 | CO[C@@H]1C[C@H](C[C@@H](C)[C@@H]2CC(=O)[C@H](C)/C=C(\C)[C@@H](O)[C@@H](OC)C(=O)[C@H](C)C[C@H](C)/C=C/C=C/C=C(\C)[C@@H](OCCOC3COC3)C[C@@H]3CC[C@@H](C)[C@@](O)(O3)C(=O)C(=O)N3CCCC[C@H]3C(=O)O2)CC[C@H]1OCCCN1C[C@@H](C)O[C@@H](C)C1 [I-101, (27E,29E,31E,32E,39R,40S,41R,44R,46S,48S,50S,51S,53R,54R,63R)-51-[(1R)-2-[(1S,3R,4R)-4-[3-[(2S,6R)-2,6-dimethylmorpholin-4-yl]propoxy]-3-methoxy-cyclohexyl]-1-methyl-ethyl]-53,63-dihydroxy-54-methoxy-39,40,41,44,55,56-hexamethyl-50-[2-(oxetan-3-yloxy)ethoxy]-75,76-dioxa-64-azatricyclohexatriaconta-27,29,31(55),32(56)-tetraene-57,58,59,60,61-pentone] | ≥ 1000 | 10 to 100 | Yes

The next lines start with results.

Row | IC50 [1] [nM] | IC50 [2] [nM] | Compound | mTORC1 selective @ 90 min (mTORC1 over mTORC2)
4 | ≥ 1000 | 1 to 10 | COCCOCCOC1C[C@@H]2CC[C@@H](C)[C@@](O)(O2)C(=O)C(=O)N2CCCC[C@H]2C(=O)O[C@H]([C@H](C)C[C@@H]2CCC(OC3COC3)[C@H](OC)C2)CC(=O)[C@H](C)/C=C(\C)[C@@H](O)[C@@H](OC)C(=O)[C@H](C)C[C@H](C)/C=C/C=C/C=C/1C (stereo partly drawn) [I-7, (24E,26E,28E,29E,35R,36S,37R,38R,40S,42S,45S,47R,48R,57R)-47,57-dihydroxy-48-methoxy-44-[2-(2-methoxyethoxy)ethoxy]-45-[(1R)-2-[(1S,3R)-3-methoxy-4-(oxetan-3-yloxy)cyclohexyl]-1-methyl-ethyl]-35,36,37,38,49,50-hexamethyl-67,68-dioxa-58-azatricyclohexatriaconta-24,26,28(49),29(50)-tetraene-51,52,53,54,55-pentone] | Yes
5 | ≥ 1000 | 10 to 100 | CO[C@@H]1C[C@H](C[C@@H](C)[C@@H]2CC(=O)[C@H](C)/C=C(\C)[C@@H](O)[C@@H](OC)C(=O)[C@H](C)C[C@H](C)/C=C/C=C/C=C(\C)[C@H](OCCOC3COC3)C[C@@H]3CC[C@@H](C)[C@@](O)(O3)C(=O)C(=O)N3CCCC[C@H]3C(=O)O2)CC[C@H]1OP(C)(C)=O [I-77, (1R,9S,12S,15R,16E,18R,19R,21R,23S,24E,26E,28E,30R,32S,35R)-12-[(1R)-2-[(1S,3R,4R)-4-dimethylphosphoryloxy-3-methoxy-cyclohexyl]-1-methyl-ethyl]-1,18-dihydroxy-19-methoxy-15,17,21,23,29,35-hexamethyl-30-[2-(oxetan-3-yloxy)ethoxy]-11,36-dioxa-4-azatricyclo[30.3.1.0^4,9]hexatriaconta-16,24,26,28-tetraene-2,3,10,14,20-pentone] | Yes
6 | ≥ 1000 | < 1 | CO[C@@H]1C[C@H](C[C@@H](C)[C@@H]2CC(=O)[C@H](C)/C=C(\C)[C@@H](O)[C@@H](OC)C(=O)[C@H](C)C[C@H](C)/C=C/C=C/C=C(\C)C(OCC3COCCO3)C[C@@H]3CC[C@@H](C)[C@@](O)(O3)C(=O)C(=O)N3CCCC[C@H]3C(=O)O2)CC[C@H]1OCCCN1CCOCC1 (stereo partly drawn) [I-12, (28E,30E,32E,33E,39R,40S,41R,42R,44S,46S,49S,51R,52R,61R)-48-(1,4-dioxan-2-ylmethoxy)-51,61-dihydroxy-52-methoxy-49-[(1R)-2-[(1S,3R,4R)-3-methoxy-4-(3-morpholinopropoxy)cyclohexyl]-1-methyl-ethyl]-39,40,41,42,53,54-hexamethyl-74,75-dioxa-63-azatricyclohexatriaconta-28,30,32(53),33(54)-tetraene-55,56,57,58,59-pentone] | Yes
7 | ≥ 1000 | 10 to 100 | CO[C@@H]1C[C@H](C[C@@H](C)[C@@H]2CC(=O)[C@H](C)/C=C(\C)[C@@H](O)[C@@H](OC)C(=O)[C@H](C)C[C@H](C)/C=C/C=C/C=C(\C)[C@H](OCC3COCCO3)C[C@@H]3CC[C@@H](C)[C@@](O)(O3)C(=O)C(=O)N3CCCC[C@H]3C(=O)O2)CC[C@H]1OC(F)F (stereo partly drawn) [I-10, (24E,26E,28E,29E,32R,33S,34R,35R,37S,39S,41R,42S,44R,45R,55R)-42-[(1R)-2-[(1S,3R,4R)-4-(difluoromethoxy)-3-methoxy-cyclohexyl]-1-methyl-ethyl]-41-(1,4-dioxan-2-ylmethoxy)-44,55-dihydroxy-45-methoxy-32,33,34,35,46,47-hexamethyl-66,67-dioxa-56-azatricyclohexatriaconta-24,26,28(46),29(47)-tetraene-48,49,50,51,52-pentone] | Yes
8 | ≥ 1000 | 1 to 10 | COCCO[C@@H]1CC[C@@H](C[C@@H](C)[C@@H]2CC(=O)[C@H](C)/C=C(\C)[C@@H](O)[C@@H](OC)C(=O)[C@H](C)C[C@H](C)/C=C/C=C/C=C(\C)C(OC[C@H]3COCCO3)C[C@@H]3CC[C@@H](C)[C@@](O)(O3)C(=O)C(=O)N3CCCC[C@H]3C(=O)O2)C[C@H]1OC (stereo partly drawn) [I-79, (1R,9S,12S,15R,16E,18R,19R,21R,23S,24E,26E,28E,32S,35R)-30-[[(2R)-1,4-dioxan-2-yl]methoxy]-1,18-dihydroxy-19-methoxy-12-[(1R)-2-[(1S,3R,4R)-3-methoxy-4-(2-methoxyethoxy)cyclohexyl]-1-methyl-ethyl]-15,17,21,23,29,35-hexamethyl-11,36-dioxa-4-azatricyclo[30.3.1.0^4,9]hexatriaconta-16,24,26,28-tetraene-2,3,10,14,20-pentone] | Yes

From patent publication US20220267352A1, “RAPAMYCIN ANALOGS AND USES THEREOF” (Anakuria Therapeutics, Inc., priority 2021, published 2022)
